Measurements as given in the NIST ThermoML archive (doi:10.1021/acs.jced.7b00035).
Where “and” joins values, the source holds several entries; their conditions need not be identical. Equal entries are not always repeated.

Legend:
[1] = 101.33 kPa, Liquid, Vibrating tube method
[2] = xn = mol fraction of the nth substance listed; details: 100 kPa, Liquid, Vibrating tube method
[3] = excess molar enthalpy (molar enthalpy of mixing); xn = mol fraction of the nth substance listed; details: 100 kPa, Liquid, Flow calorimetry

CCCC(C)=O [pentan-2-one]
[1]
Details | mass density [kg/m3]
288.15 K | 811.06
298.15 K | 801.41
308.15 K | 791.66
318.15 K | 781.83

CCCCC(C)=O [2-hexanone]
[1]
Details | mass density [kg/m3]
288.15 K | 815.72
298.15 K | 806.7
308.15 K | 797.6
318.15 K | 788.45

CCC(=O)CC [pentan-3-one]
[1]
Details | mass density [kg/m3]
288.15 K | 818.9
298.15 K | 809.16
308.15 K | 799.32
318.15 K | 789.41

CC(=O)C(C)C [3-methyl-2-butanone]
[1]
Details | mass density [kg/m3]
288.15 K | 808.3
298.15 K | 798.51
308.15 K | 788.6
318.15 K | 778.62

CCCCC(C)=O [2-hexanone] + O
Details | excess molar enthalpy, [3] | mass density, [2]
288.15 K, x1 = 0.00087 | -0.00256 kcal/mol and -0.00254 kcal/mol | 998.466 kg/m3 and 998.439 kg/m3
288.15 K, x1 = 0.00116 | -0.00343 kcal/mol and -0.00339 kcal/mol | 998.248 kg/m3 and 998.255 kg/m3
288.15 K, x1 = 0.00145 | -0.00423 kcal/mol and -0.00421 kcal/mol | 998.054 kg/m3
288.15 K, x1 = 0.001739 | -0.00503 kcal/mol and -0.00504 kcal/mol | 997.852 kg/m3 and 997.853 kg/m3
298.15 K, x1 = 0.000869 | -0.00197 kcal/mol | 996.347 kg/m3
298.15 K, x1 = 0.00087 | -0.00198 kcal/mol | 996.364 kg/m3
298.15 K, x1 = 0.001159 | -0.00264 kcal/mol | 996.128 kg/m3
298.15 K, x1 = 0.00116 | -0.00262 kcal/mol | 996.137 kg/m3
298.15 K, x1 = 0.001448 | -0.00321 kcal/mol | 995.926 kg/m3
298.15 K, x1 = 0.00145 | -0.00329 kcal/mol | 995.903 kg/m3
298.15 K, x1 = 0.001737 | -0.00394 kcal/mol | 995.664 kg/m3
298.15 K, x1 = 0.00174 | -0.0039 kcal/mol | 995.681 kg/m3
308.15 K, x1 = 0.000869 | -0.00138 kcal/mol | 993.309 kg/m3 and 993.32 kg/m3
308.15 K, x1 = 0.001158 | -0.0018 kcal/mol | 993.074 kg/m3
308.15 K, x1 = 0.001159 | -0.00181 kcal/mol | 993.08 kg/m3
308.15 K, x1 = 0.001447 | -0.00226 kcal/mol | 992.84 kg/m3
308.15 K, x1 = 0.001448 | -0.00224 kcal/mol | 992.834 kg/m3
308.15 K, x1 = 0.001735 | -0.00273 kcal/mol | 992.573 kg/m3
308.15 K, x1 = 0.001737 | -0.00273 kcal/mol | 992.571 kg/m3
318.15 K, x1 = 0.000868 | -0.000825 kcal/mol | 989.45 kg/m3
318.15 K, x1 = 0.000869 | -0.000817 kcal/mol | 989.446 kg/m3
318.15 K, x1 = 0.00087 | -0.000813 kcal/mol | 989.455 kg/m3
318.15 K, x1 = 0.001158 | -0.0011 kcal/mol | 989.173 kg/m3
318.15 K, x1 = 0.001159 | -0.00111 kcal/mol and -0.00109 kcal/mol | 989.168 kg/m3 and 989.197 kg/m3
318.15 K, x1 = 0.001447 | -0.00133 kcal/mol | 988.934 kg/m3
318.15 K, x1 = 0.001448 | -0.00135 kcal/mol and -0.00132 kcal/mol | 988.931 kg/m3 and 988.956 kg/m3
318.15 K, x1 = 0.001736 | -0.00161 kcal/mol | 988.678 kg/m3
318.15 K, x1 = 0.001737 | -0.00162 kcal/mol and -0.00165 kcal/mol | 988.651 kg/m3 and 988.636 kg/m3

CC(=O)CC(C)C [4-methylpentan-2-one]
[1]
Details | mass density [kg/m3]
288.15 K | 805.12
298.15 K | 795.98
308.15 K | 786.75
318.15 K | 777.46
